Bounds are passed on as bounds.

For assay [1], the target named is Vascular endothelial growth factor receptor 2 (Homo sapiens, UniProt P35968). As to the kind of experiment: Inhibition of VEGFR2 (unknown origin) by Kinase-Glo max reagent based assay.
Assay [2] relates to CAKI-1. As to the kind of experiment: Cytotoxicity against human CAKI-1 cells incubated for 48 hrs by MTT assay. The assay is classed as functional, cell-based. As to conditions: CAKI-1, 48 h. For orientation: Tetrazolium assays rely on reduction of a dye to a coloured formazan, in cell work by metabolically active cells.
For assay [3], the system named is A498. Kind of assay: Cytotoxicity against human A498 cells incubated for 48 hrs by MTT assay. The assay is classed as functional, cell-based. The note with it: A498, 48 h.
The subject of assay [4] is ACHN. As to the kind of experiment: Induction of TRAIL induced apoptosis in human ACHN cells assessed as reduction in cFLIP level. It is filed as functional, cell-based.
Assay [5] concerns A498. As to the kind of experiment: Antiproliferative activity against human A498 cells. It is filed as functional, cell-based.
For assay [6], the system named is 786-0. As to the kind of experiment: Antiproliferative activity against human 786-0 cells. The assay is classed as functional, cell-based.

Sequence of Vascular endothelial growth factor receptor 2 (P35968 whole entry): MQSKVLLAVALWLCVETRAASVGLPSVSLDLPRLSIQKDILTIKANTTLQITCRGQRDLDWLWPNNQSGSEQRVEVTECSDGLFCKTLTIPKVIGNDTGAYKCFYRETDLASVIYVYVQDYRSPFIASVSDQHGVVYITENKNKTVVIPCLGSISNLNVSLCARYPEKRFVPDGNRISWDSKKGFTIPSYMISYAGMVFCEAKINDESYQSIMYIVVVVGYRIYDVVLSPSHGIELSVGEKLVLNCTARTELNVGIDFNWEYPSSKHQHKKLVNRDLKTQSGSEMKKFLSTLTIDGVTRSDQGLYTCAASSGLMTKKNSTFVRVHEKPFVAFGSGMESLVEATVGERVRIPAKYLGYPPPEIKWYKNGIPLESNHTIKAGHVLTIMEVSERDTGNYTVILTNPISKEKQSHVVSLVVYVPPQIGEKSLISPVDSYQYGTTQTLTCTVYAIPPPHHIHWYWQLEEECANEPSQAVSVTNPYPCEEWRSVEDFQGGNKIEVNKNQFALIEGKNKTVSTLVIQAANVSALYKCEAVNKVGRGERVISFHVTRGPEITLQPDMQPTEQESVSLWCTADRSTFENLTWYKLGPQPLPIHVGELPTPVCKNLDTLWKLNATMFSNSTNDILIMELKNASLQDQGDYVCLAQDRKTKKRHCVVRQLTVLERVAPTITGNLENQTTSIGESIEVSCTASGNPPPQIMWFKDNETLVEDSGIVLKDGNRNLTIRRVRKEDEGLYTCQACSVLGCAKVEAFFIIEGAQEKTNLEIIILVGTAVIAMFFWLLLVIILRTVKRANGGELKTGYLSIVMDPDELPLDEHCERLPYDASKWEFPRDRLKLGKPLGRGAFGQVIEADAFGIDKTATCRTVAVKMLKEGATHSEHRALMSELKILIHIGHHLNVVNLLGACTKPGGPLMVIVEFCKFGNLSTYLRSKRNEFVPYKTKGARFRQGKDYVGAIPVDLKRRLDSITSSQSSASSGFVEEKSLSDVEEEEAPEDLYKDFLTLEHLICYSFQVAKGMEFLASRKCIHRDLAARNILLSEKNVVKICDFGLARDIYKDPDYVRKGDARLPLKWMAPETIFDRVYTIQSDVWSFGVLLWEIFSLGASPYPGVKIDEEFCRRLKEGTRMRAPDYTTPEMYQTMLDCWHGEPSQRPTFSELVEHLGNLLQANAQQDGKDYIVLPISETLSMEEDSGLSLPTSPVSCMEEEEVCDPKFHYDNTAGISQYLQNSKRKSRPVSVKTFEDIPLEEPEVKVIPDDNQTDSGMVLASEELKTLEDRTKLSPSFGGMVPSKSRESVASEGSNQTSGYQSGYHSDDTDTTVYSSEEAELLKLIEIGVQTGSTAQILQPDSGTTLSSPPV

The IC50 is the midpoint of a concentration-inhibition curve. As to `CCOC(=O)/C(=N\Nc1ccccc1)Sc1nnc(-c2cc3ccccc3[nH]2)n1/N=C/c1ccc(OC)cc1`, the half-maximal inhibitory concentration (IC50) stood at 77 nM in assay [1], 8460 nM in assay [2] and 640 nM in assay [3].

As to `CC(=O)OC[C@]12CC[C@H]3[C@@H](C[C@H]4O[C@]45CC=CC(=O)[C@]35C)[C@]1(O)CC[C@@]2(O)[C@@](C)(O)[C@H]1CC(C)=C(C)C(=O)O1`, the IC50 in assay [4] came to 117 nM.

Take `O=C(Nc1cccc(Cl)c1)Nc1nc2ccc([N+](=O)[O-])cc2s1`: the half-inhibitory concentration (IC50) in assay [5] came to 2500 nM; in assay [6], 2000 nM.

As for `CC1=C(C)C(=O)O[C@@H]([C@](C)(O)[C@]2(O)CC[C@@]3(O)[C@@H]4C[C@H]5O[C@]56CC=CC(=O)[C@]6(C)[C@H]4CC[C@]23C)C1` [WITHANOLIDE E], in assay [4], the half-maximal inhibitory concentration (IC50) turned out to be 1400 nM.

As for `O=C(Nc1ccccc1)Nc1nc2ccccc2o1`, the IC50 in assay [5] and in assay [6] was over 25000 nM in each case.

`CC(=O)/C(=N\Nc1ccccc1)Sc1nnc(-c2cc3ccccc3[nH]2)n1/N=C/c1ccc(C)cc1`: the IC50 in assay [1] is 75 nM; in assay [2], 3230 nM; in assay [3], 2050 nM.

With `O=C(Nc1ccc([N+](=O)[O-])cc1O)Nc1ccccc1Br`, the IC50 in assay [5] came out at 70000 nM; in assay [6] it was 100000 nM.

`O=C(Nc1ccc(Cl)cc1)Nc1nc2ccccc2[nH]1`: the IC50 is 9000 nM in assay [5] and 20000 nM in assay [6].

In assay [1], `Cc1ccc(/C=N/n2c(-c3cc4ccccc4[nH]3)n[nH]c2=S)cc1` registered an IC50 of 34 nM.

`CCN(CC)CCNC(=O)c1c(C)[nH]c(/C=C2\C(=O)Nc3ccc(F)cc32)c1C` [SUNITINIB] came in with an IC50 in assay [3] of 1250 nM.

In assay [1], `COc1ccc(/C=N/n2c(-c3cc4ccccc4[nH]3)n[nH]c2=S)cc1` came in with a half-inhibitory concentration (IC50) of 64 nM.

The record behind these values is ChEMBL document CHEMBL5512612, “Novel small molecule inhibitors targeting renal cell carcinoma: Status, challenges, future directions” (Eur J Med Chem, 2024).
